# Non-standard residues stand in square brackets, D forms with d. Residues, ends and D or L forms follow the SMILES beside them. 2Nal = N[C@@H](Cc1ccc2ccccc2c1)C(=O)O; d2Nal = N[C@H](Cc1ccc2ccccc2c1)C(=O)O
# Tests used:
# [1] = tested on: Pseudomonas aeruginosa (ATCC 27883); settings: ATCC 27883
# [2] = tested on: Escherichia coli (ATCC 25922); settings: ATCC 25922
# in vitro = settings: human, fresh human red blood cells (washed), pH 7.4
# [3] = tested on: Methicillin-resistant Staphylococcus aureus MRSA (ATCC BAA-1556); settings: ATCC BAA-1556
# S. aureus ATCC 29213 = settings: ATCC 29213
MIC P. aeruginosa ATCC 27883 [1] [µg/mL],MIC E. coli ATCC 25922 [2] [µg/mL],HC50 at 0.5 h (in vitro) [µg/mL],MIC MRSA ATCC BAA-1556 [3] [µg/mL],MIC S. aureus ATCC 29213 (S. aureus ATCC 29213) [µg/mL],SMILES
32,32,220,3.1,3.1,"N=C(N)NCCC[C@H]1NC(=O)[C@H](Cc2ccc3ccccc3c2)NC(=O)[C@H](Cc2ccc3ccccc3c2)NC(=O)[C@@H](Cc2c[nH]c3ccccc23)NC(=O)[C@@H](CCCNC(=N)N)NC(=O)[C@@H](CCCNC(=N)N)NC(=O)[C@@H](CCCNC(=N)N)NC1=O [IFX-122, c[arg-arg-arg-arg-trp-NaI-NaI]] (cyclo([2Nal][2Nal][dR][dR][dR][dR][dW]))"
16,16,190,3.1,3.1,"N=C(N)NCCC[C@H]1NC(=O)[C@H](Cc2ccc3ccccc3c2)NC(=O)[C@H](Cc2ccc3ccccc3c2)NC(=O)[C@@H](Cc2c[nH]c3ccccc23)NC(=O)[C@@H](CCCNC(=N)N)NC(=O)[C@@H](CCCNC(=N)N)NC(=O)[C@@H](CCCNC(=N)N)NC(=O)[C@@H](CCCNC(=N)N)NC1=O [IFX-123, c[arg-arg-arg-arg-arg-trp-NaI-NaI]] (cyclo([2Nal][2Nal][dR][dR][dR][dR][dR][dW]))"
16,16,410,3.1,3.1,"N=C(N)NCCC[C@H]1NC(=O)[C@@H](CCCNC(=N)N)NC(=O)[C@@H](CCCNC(=N)N)NC(=O)[C@@H](Cc2ccc3ccccc3c2)NC(=O)[C@@H](Cc2ccc3ccccc3c2)NC(=O)[C@@H](Cc2c[nH]c3ccccc23)NC(=O)[C@@H](CCCNC(=N)N)NC(=O)[C@@H](CCCNC(=N)N)NC1=O [IFX-124, c[arg-arg-arg-arg-arg-trp-naI-naI]] (cyclo([d2Nal][d2Nal][dR][dR][dR][dR][dR][dW]))"
32,16,485,3.1,3.1,"N=C(N)NCCC[C@@H]1NC(=O)[C@H](CCCNC(=N)N)NC(=O)[C@@H](Cc2ccc3ccccc3c2)NC(=O)[C@@H](Cc2ccc3ccccc3c2)NC(=O)[C@H](Cc2c[nH]c3ccccc23)NC(=O)[C@@H](CCCNC(=N)N)NC(=O)[C@@H](CCCNC(=N)N)NC(=O)[C@H](CCCNC(=N)N)NC1=O [IFX-125, c[Arg-Arg-Arg-arg-arg-Trp-naI-naI]] (cyclo(RRR[dR][dR]W[d2Nal][d2Nal]))"
128,64,610,12.5,12.5,"NCCCC[C@@H]1NC(=O)[C@H](CCCCN)NC(=O)[C@H](CCCCN)NC(=O)[C@H](Cc2ccc3ccccc3c2)NC(=O)[C@H](Cc2ccc3ccccc3c2)NC(=O)[C@H](Cc2c[nH]c3ccccc23)NC(=O)[C@H](CCCCN)NC1=O [IFX-126, c[Lys-Lys-Lys-Lys-Trp-NaI-NaI]] (cyclo([2Nal][2Nal]KKKKW))"
128,64,540,6.2,6.2,"NCCCC[C@@H]1NC(=O)[C@H](CCCCN)NC(=O)[C@H](CCCCN)NC(=O)[C@@H](Cc2ccc3ccccc3c2)NC(=O)[C@@H](Cc2ccc3ccccc3c2)NC(=O)[C@H](Cc2c[nH]c3ccccc23)NC(=O)[C@H](CCCCN)NC1=O [IFX-127, c[Lys-Lys-Lys-Lys-Trp-naI-naI]] (cyclo(KKKKW[d2Nal][d2Nal]))"
64,64,590,6.2,6.2,"NCCCC[C@@H]1NC(=O)[C@@H](CCCCN)NC(=O)[C@H](CCCCN)NC(=O)[C@@H](CCCCN)NC(=O)[C@@H](Cc2ccc3ccccc3c2)NC(=O)[C@@H](Cc2ccc3ccccc3c2)NC(=O)[C@H](Cc2c[nH]c3ccccc23)NC1=O [IFX-128, c[lys-Lys-lys-Lys-Trp-naI-naI]] (cyclo(KW[d2Nal][d2Nal][dK]K[dK]))"
64,64,420,3.1,3.1,"NCCCC[C@@H]1NC(=O)[C@@H](CCCCN)NC(=O)[C@H](CCCCN)NC(=O)[C@@H](Cc2ccc3ccccc3c2)NC(=O)[C@@H](Cc2ccc3ccccc3c2)NC(=O)[C@H](Cc2c[nH]c3ccccc23)NC(=O)[C@@H](CCCCN)NC1=O [IFX-129, c[Lys-lys-Lys-lys-Trp-naI-naI]] (cyclo(K[dK]K[dK]W[d2Nal][d2Nal]))"
128,128,880,12.5,6.2,"NCCCC[C@H]1NC(=O)[C@@H](CCCCN)NC(=O)[C@@H](CCCCN)NC(=O)[C@@H](Cc2ccc3ccccc3c2)NC(=O)[C@@H](Cc2ccc3ccccc3c2)NC(=O)[C@@H](Cc2c[nH]c3ccccc23)NC(=O)[C@@H](CCCCN)NC1=O [IFX-130, c[lys-lys-lys-lys-trp-naI-naI]] (cyclo([d2Nal][d2Nal][dK][dK][dK][dK][dW]))"
64,128,690,12.5,6.2,"NCCCC[C@@H]1NC(=O)[C@H](CCCCN)NC(=O)[C@H](CCCCN)NC(=O)[C@H](Cc2ccc3ccccc3c2)NC(=O)[C@H](Cc2ccc3ccccc3c2)NC(=O)[C@H](Cc2c[nH]c3ccccc23)NC(=O)[C@H](CCCCN)NC(=O)[C@H](CCCCN)NC1=O [IFX-131, c[Lys-Lys-Lys-Lys-Lys-Trp-NaI-NaI]] (cyclo([2Nal][2Nal]KKKKKW))"
128,128,930,12.5,12.5,"NCCCC[C@@H]1NC(=O)[C@H](CCCCN)NC(=O)[C@H](CCCCN)NC(=O)[C@@H](Cc2ccc3ccccc3c2)NC(=O)[C@@H](Cc2ccc3ccccc3c2)NC(=O)[C@@H](Cc2c[nH]c3ccccc23)NC(=O)[C@H](CCCCN)NC(=O)[C@H](CCCCN)NC1=O [IFX-132, c[Lys-Lys-Lys-Lys-Lys-trp-naI-naI]] (cyclo(KKKKK[dW][d2Nal][d2Nal]))"
128,128,580,6.2,6.2,"NCCCC[C@H]1NC(=O)[C@@H](CCCCN)NC(=O)[C@@H](CCCCN)NC(=O)[C@@H](Cc2ccc3ccccc3c2)NC(=O)[C@@H](Cc2ccc3ccccc3c2)NC(=O)[C@@H](Cc2c[nH]c3ccccc23)NC(=O)[C@@H](CCCCN)NC(=O)[C@@H](CCCCN)NC1=O [IFX-133, c[lys-lys-lys-lys-lys-trp-naI-naI]] (cyclo([d2Nal][d2Nal][dK][dK][dK][dK][dK][dW]))"
128,128,890,12.5,12.5,"NCCCC[C@H]1NC(=O)[C@H](Cc2ccc3ccccc3c2)NC(=O)[C@H](Cc2ccc3ccccc3c2)NC(=O)[C@H](Cc2c[nH]c3ccccc23)NC(=O)[C@@H](CCCCN)NC(=O)[C@@H](CCCCN)NC(=O)[C@@H](CCCCN)NC(=O)[C@@H](CCCCN)NC1=O [IFX-134, c[lys-lys-lys-lys-lys-Trp-NaI-NaI]] (cyclo([2Nal][2Nal][dK][dK][dK][dK][dK]W))"

# Reference: patent publication US20220289794A1, “SYNTHETIC ANTIMICROBIAL PEPTIDES” (priority 2019, published 2022)
